Literature values as cited in US20100143341A1, “THIENOPYRIMIDINES FOR PHARMACEUTICAL COMPOSITIONS” (DEVELOGEN AKTIENGESELLSCHAFT, priority 2005, published 2010).

Legend:
human Mnk2 protein = human Mnk2 protein (Homo sapiens, UniProt Q9HBH9); conditions: described in WO 02/103361
phosphorylated eIF4E = conditions: cell culture cells transfected with Mnk2 (Mnk2a or Mnk2b) or Mnk1

Sequence of human Mnk2 protein (Q9HBH9 whole entry): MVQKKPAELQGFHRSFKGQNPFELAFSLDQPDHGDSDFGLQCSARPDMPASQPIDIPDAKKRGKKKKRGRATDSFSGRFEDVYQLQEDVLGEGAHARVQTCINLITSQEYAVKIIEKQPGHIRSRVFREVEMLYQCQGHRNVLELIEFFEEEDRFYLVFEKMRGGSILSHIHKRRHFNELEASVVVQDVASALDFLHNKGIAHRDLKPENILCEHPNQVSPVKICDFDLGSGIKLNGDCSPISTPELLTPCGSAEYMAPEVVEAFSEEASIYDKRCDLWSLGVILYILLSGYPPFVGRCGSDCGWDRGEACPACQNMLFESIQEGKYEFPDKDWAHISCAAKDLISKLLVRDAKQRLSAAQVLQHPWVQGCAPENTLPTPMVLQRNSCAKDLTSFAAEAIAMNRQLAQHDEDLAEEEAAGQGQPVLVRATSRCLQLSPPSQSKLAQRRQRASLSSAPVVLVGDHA

binds the human Mnk2 protein (human Mnk2 protein) | Structure (SMILES) | reduction of phosphorylated eIF4E (phosphorylated eIF4E)
binds | COC(=O)c1ccc(O)cc1 [4-hydroxybenzoic acid methyl ester] | –
– | Nc1ncnc2n[nH]c(Nc3ccc(F)cc3)c12 [CGP57380] | strong reduction
